In US8309597B2, “1,1′-diadamantyl carboxylic acids, medicaments containing such compounds and their use” (Boehringer Ingelheim International GmbH, priority 2008, dated 2012):

Molecular target: T1, 11β-hydroxysteroid dehydrogenase (HSD) 1 (Homo sapiens, UniProt P28845)
T1 construct: detecting cortisol generated from cortisterone by human liver microsomes; from tissue; host or cells: human liver microsomes
Experiment: In vitro inhibition of 11β-HSD1, HTRF detection of cortisol generated from cortisone by human liver microsomes
Assay type: biochemical
Conditions: compound concentration 1 μM, 100% indicates no inhibition, zero or below zero indicates complete inhibition
Protocol: Briefly, compounds are incubated for 1 hour at 37° C. in Tris buffer (20 mM tris, 5 mM EDTA, pH 6.0) containing NADPH (200 μM) and cortisone (80 nM). Cortisol generated in the reaction is then detected with a competitive immunoassay, involving two HTRF conjugates: cortisol linked to XL665 and anti-cortisol antibody labeled with Europium cryptate. The incubation period for detection reaction is typically 2 hours. The amount of cortisol is determined by reading the time-resolved fluorescence of the wells (Ex 320/75 nm; Em 615/8.5 nm and 665/7.5 nm). The ratio of the two emission signals is then calculated (Em665*10000/Em615). […] Each assay also contains a calibration curve with cortisol to transform the fluorescent data into cortisol concentrations. Percent inhibition (% CTL) of each compound is determined relative to the carbenoxolone signal and IC50 curves are generated.
The % CTL values of some example compounds at a concentration of 1 μM are provided in the following Table 2 wherein 100% indicates no inhibition and a value of zero or below zero indicates complete inhibition. The measurement of % CTL is described hereinbefore.

T1 sequence (P28845 whole entry): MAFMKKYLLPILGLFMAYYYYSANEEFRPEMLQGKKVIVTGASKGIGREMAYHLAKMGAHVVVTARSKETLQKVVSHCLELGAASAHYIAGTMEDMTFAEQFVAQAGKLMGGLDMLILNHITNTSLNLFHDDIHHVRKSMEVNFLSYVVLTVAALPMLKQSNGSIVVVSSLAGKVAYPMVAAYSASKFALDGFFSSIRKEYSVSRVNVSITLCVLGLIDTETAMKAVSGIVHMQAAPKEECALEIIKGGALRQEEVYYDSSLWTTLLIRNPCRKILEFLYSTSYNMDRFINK

| 11β-HSD 1 inhibitory activity (% CTL at 1 μM) [% CTL] | Compound |
| --- | --- |
| 4 | O=C(O)C12CC3CC(C1)CC(C14CC5CC(CC(C(=O)N6CCc7ccccc76)(C5)C1)C4)(C3)C2 [Example 51] |
| 81 | COc1ccc(N(C)C(=O)C23CC4CC(C2)CC(C25CC6CC(CC(C(=O)O)(C6)C2)C5)(C4)C3)cc1 [Example 33] |
| 1 | N#CC12CC3CC(C1)CC(C14CC5CC(CC(C(=O)O)(C5)C1)C4)(C3)C2 [Example 6] |
| 1 | O=C(O)C12CC3CC(C1)CC(C14CC5CC(CC(C(=O)N6CCOCC6)(C5)C1)C4)(C3)C2 [Example 12] |
| 50 | NC(=O)C12CC3CC(C1)CC(C14CC5CC(CC(C(=O)O)(C5)C1)C4)(C3)C2 [Example 5] |
| 19 | N#CNC(=O)C12CC3CC(C1)CC(C14CC5CC(CC(C(=O)O)(C5)C1)C4)(C3)C2 [Example 19] |
| 24 | O=C(O)C12CC3CC(C1)CC(C14CC5CC(CC(C(=O)N6CCc7cc(Br)ccc7C6)(C5)C1)C4)(C3)C2 [Example 49] |
| 0 | O=C(O)C12CC3CC(C1)CC(C14CC5CC(CC(c6nc7ccccc7n6CCc6ccccc6)(C5)C1)C4)(C3)C2 [Example 41] |
| −26 | CCN(C)C(=O)C12CC3CC(C1)CC(C14CC5CC(CC(C(=O)O)(C5)C1)C4)(C3)C2 [Example 18] |
| 96 | O=C(O)C12CC3CC(C1)CC(C14CC5CC(CC(C(=O)Nc6ccccc6)(C5)C1)C4)(C3)C2 [Example 28] |
| −3 | CCN(C(=O)C12CC3CC(C1)CC(C14CC5CC(CC(C(=O)O)(C5)C1)C4)(C3)C2)C1CCCCC1 [Example 35] |
| 53 | O=C(O)C12CC3CC(C1)CC(C14CC5CC(CC(C(=O)N(CCc6ccccc6)C6CCCCC6)(C5)C1)C4)(C3)C2 [Example 39] |
| 0 | CN(C)C(=O)c1ccc(Oc2ccc3c(c2)CN(C(=O)C24CC5CC(C2)CC(C26CC7CC(CC(C(=O)O)(C7)C2)C6)(C5)C4)CC3)cc1 [Example 46] |
| 8 | Cn1c(C23CC4CC(C2)CC(C25CC6CC(CC(C(=O)O)(C6)C2)C5)(C4)C3)nc2ccccc21 [Example 32] |
| 53 | O=C(O)C12CC3CC(C1)CC(C14CC5CC(CC(C(=O)NCCO)(C5)C1)C4)(C3)C2 [Example 13] |
| 12 | O=C(O)C12CC3CC(C1)CC(C14CC5CC(CC(c6nc7ccccc7o6)(C5)C1)C4)(C3)C2 [Example 27] |
| 26 | CC(C)(C)OC(=O)NC12CC3CC(C1)CC(C14CC5CC(CC(C(=O)O)(C5)C1)C4)(C3)C2 [Example 7] |
| −20 | O=C(O)C12CC3CC(C1)CC(C14CC5CC(CC(C(=O)N6CCc7ccccc7C6)(C5)C1)C4)(C3)C2 [Example 43] |
| 69 | CC(=O)NC12CC3CC(C1)CC(C14CC5CC(CC(C(=O)O)(C5)C1)C4)(C3)C2 [Example 16] |
| 29 | CNC(=O)C12CC3CC(C1)CC(C14CC5CC(CC(C(=O)O)(C5)C1)C4)(C3)C2 [Example 2] |
| −7 | COC(=O)C12CC3CC(C1)CC(C14CC5CC(CC(C(=O)O)(C5)C1)C4)(C3)C2 [Example 1] |
| −8 | CN(C(=O)C12CC3CC(C1)CC(C14CC5CC(CC(C(=O)O)(C5)C1)C4)(C3)C2)C1CCCCC1 [Example 29] |
| −5 | O=C(O)C12CC3CC(C1)CC(C14CC5CC(CC(CO)(C5)C1)C4)(C3)C2 [Example 14] |
| 95 | NC12CC3CC(C1)CC(C14CC5CC(CC(C(=O)O)(C5)C1)C4)(C3)C2 [Example 8] |
| −26 | CC(C)N(C)C(=O)C12CC3CC(C1)CC(C14CC5CC(CC(C(=O)O)(C5)C1)C4)(C3)C2 [Example 17] |

| 11β-HSD 1 inhibitory activity (% CTL at 1 μM) [% CTL] | Compound |
| --- | --- |
| −18 | COc1ccc(CCCN(C)C(=O)C23CC4CC(C2)CC(C25CC6CC(CC(C(=O)O)(C6)C2)C5)(C4)C3)cc1 [Example 23] |
| 36 | CN(C(=O)C12CC3CC(C1)CC(C14CC5CC(CC(C(=O)O)(C5)C1)C4)(C3)C2)c1ccc(-c2ccccc2)cc1 [Example 34] |
| 7 | CN(C(=O)C12CC3CC(C1)CC(C14CC5CC(CC(C(=O)O)(C5)C1)C4)(C3)C2)C1CCC(C(C)(C)C)CC1 (stereo not shown) [Example 38] |
| −3 | CN(CCc1ccccc1)C(=O)C12CC3CC(C1)CC(C14CC5CC(CC(C(=O)O)(C5)C1)C4)(C3)C2 [Example 10] |
| 49 | CN(Cc1ccccc1)C(=O)C12CC3CC(C1)CC(C14CC5CC(CC(C(=O)O)(C5)C1)C4)(C3)C2 [Example 9] |
| −9 | O=C(O)C12CC3CC(C1)CC(C14CC5CC(CC(c6ncc7ccccc7n6)(C5)C1)C4)(C3)C2 [Example 50] |
| −13 | CN(C)C(=O)C12CC3CC(C1)CC(C14CC5CC(CC(C(=O)O)(C5)C1)C4)(C3)C2 [Example 4] |
| 44 | O=C(O)C12CC3CC(C1)CC(C14CC5CC(CC(c6nnc(-c7ccccc7)o6)(C5)C1)C4)(C3)C2 [Example 26] |
| −11 | CC(C)(O)C12CC3CC(C1)CC(C14CC5CC(CC(C(=O)O)(C5)C1)C4)(C3)C2 [Example 3] |
| 34 | O=C(O)C12CC3CC(C1)CC(C14CC5CC(CC(COc6ccccn6)(C5)C1)C4)(C3)C2 [Example 15] |
| −11 | O=C(O)C12CC3CC(C1)CC(C14CC5CC(CC(C(=O)N6CCCC6)(C5)C1)C4)(C3)C2 [Example 11] |
| 62 | O=C(O)C12CC3CC(C1)CC(C14CC5CC(CC(C6=NCc7ccccc7N6)(C5)C1)C4)(C3)C2 [Example 37] |
| 7 | O=C(O)C12CC3CC(C1)CC(C14CC5CC(CC(C(=O)N6CCC6)(C5)C1)C4)(C3)C2 [Example 20] |
| 13 | CN(C(=O)C12CC3CC(C1)CC(C14CC5CC(CC(C(=O)O)(C5)C1)C4)(C3)C2)C1CCC(c2ccccc2)CC1 (stereo not shown) [Example 36] |
| −36 | O=C(O)C12CC3CC(C1)CC(C14CC5CC(CC(C(=O)N6Cc7ccccc7C6)(C5)C1)C4)(C3)C2 [Example 42] |
| 8 | O=C(O)c1ccc(Oc2ccc3c(c2)CN(C(=O)C24CC5CC(C2)CC(C26CC7CC(CC(C(=O)O)(C7)C2)C6)(C5)C4)CC3)cc1 [Example 45] |
| 69 | O=C(O)C12CC3CC(C1)CC(C14CC5CC(CC(c6nnn[nH]6)(C5)C1)C4)(C3)C2 [Example 21] |
| −33 | COc1ccc(C(=O)C23CC4CC(C2)CC(C25CC6CC(CC(C(=O)O)(C6)C2)C5)(C4)C3)cc1 [Example 24] |
| 30 | CN(C(=O)C12CC3CC(C1)CC(C14CC5CC(CC(C(=O)O)(C5)C1)C4)(C3)C2)c1ccccc1 [Example 30] |
| 61 | CN(C(=O)C12CC3CC(C1)CC(C14CC5CC(CC(C(=O)O)(C5)C1)C4)(C3)C2)C1CCCNC1 (stereo not shown) [Example 31] |
| −15 | COCC1CCCN1C(=O)C12CC3CC(C1)CC(C14CC5CC(CC(C(=O)O)(C5)C1)C4)(C3)C2 (stereo not shown) [Example 47] |
| −20 | CN(C(=O)C12CC3CC(C1)CC(C14CC5CC(CC(C(=O)O)(C5)C1)C4)(C3)C2)C1CCCC1 [Example 40] |
| 37 | CN1CCN(C(=O)C23CC4CC(C2)CC(C25CC6CC(CC(C(=O)O)(C6)C2)C5)(C4)C3)CC1 [Example 22] |
| −17 | N#Cc1ccc2c(c1)CN(C(=O)C13CC4CC(C1)CC(C15CC6CC(CC(C(=O)O)(C6)C1)C5)(C4)C3)CC2 [Example 44] |
